Among the data in ChEMBL document CHEMBL5550143, “Modulation of proteasome subunit selectivity of syringolins” (Bioorg Med Chem, 2024) are IC50, Ki and inhibition values, retold here.

The structures appear in SMILES notation. Active and inactive are the calls of the source. No cut-off for these calls is given here. Some results are limits rather than exact numbers.

In one assay the test system is DU-145. As to the kind of experiment: Cytotoxicity against human DU-145 cells incubated for 72 hrs by CCK8 assay. As to conditions: DU-145, 72 h.
The next assay concerns LNCaP. As to the kind of experiment: Cytotoxicity against human LNCaP cells incubated for 72 hrs by CCK8 assay. In general terms: Tetrazolium dyes change colour on reduction, which living cells bring about.
A further assay has as its system MM1.S. As to the kind of experiment: Cytotoxicity against human MM1.S cells. The assay is classed as functional, cell-based.
Assay [1] deals with T1, Proteasome Macropain subunit MB1 (Homo sapiens, UniProt P28074).
T1 sequence (P28074 whole entry): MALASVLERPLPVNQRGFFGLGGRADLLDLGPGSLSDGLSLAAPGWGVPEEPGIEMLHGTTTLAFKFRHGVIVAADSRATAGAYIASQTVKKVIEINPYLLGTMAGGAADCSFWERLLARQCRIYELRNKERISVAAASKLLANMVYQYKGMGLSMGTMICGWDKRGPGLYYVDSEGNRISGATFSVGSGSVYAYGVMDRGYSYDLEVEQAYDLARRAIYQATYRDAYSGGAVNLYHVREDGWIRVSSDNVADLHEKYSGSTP
As to the kind of experiment: Inhibition of 20S proteasome beta-5 in human erythrocytes using Suc-LLVY-AMC as substrate by AK-740 assay. The arrangement: species or system Erythrocyte.

Assay [2] has as its target T2, Proteasome component C5 (Homo sapiens) (UniProt P20618).
T2 sequence (whole entry): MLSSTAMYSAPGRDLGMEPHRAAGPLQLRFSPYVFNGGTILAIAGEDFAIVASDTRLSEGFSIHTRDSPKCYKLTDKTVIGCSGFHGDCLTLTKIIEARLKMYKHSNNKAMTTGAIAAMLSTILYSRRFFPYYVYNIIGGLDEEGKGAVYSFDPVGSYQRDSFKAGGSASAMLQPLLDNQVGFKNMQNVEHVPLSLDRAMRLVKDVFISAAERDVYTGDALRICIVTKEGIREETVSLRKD
As to the kind of experiment: Inhibition of 20S proteasome beta-1 (unknown origin) upto 150 uM.

On to `CCCCCCCCCC(=O)N[C@@H](Cc1ccccc1)C(=O)N[C@H]1CCCCNC(=O)/C=C/[C@H](Cc2ccc(C(N)=O)cc2)NC1=O`, for which the IC50 with DU-145 and with LNCaP was greater than 1 µM each time.

Regarding `CCCCCCCCCC(=O)N[C@@H](Cc1ccccc1)C(=O)N[C@H]1CCCCNC(=O)/C=C/[C@H](Cc2ccc(CN(C)C)cc2)NC1=O`, the 50% inhibitory concentration (IC50) with DU-145 and in the assay on LNCaP was greater than 1 µM each time.

As for `CCCCCCCCCC(=O)N[C@@H](Cc1ccccc1)C(=O)N[C@H]1CCCCNC(=O)/C=C/[C@H](Cc2ccc(O)cc2)NC1=O`, the IC50 was greater than 1 µM with DU-145 and 0.575 µM in the assay with LNCaP.

Consider `CCCCCCCCCC(=O)N[C@@H](Cc1ccccc1)C(=O)N[C@H]1CCCCNC(=O)/C=C/[C@H](Cc2ccc(C(=O)O)cc2)NC1=O`, for which the IC50 with DU-145 and in the assay with LNCaP was greater than 1 µM throughout.

For the molecule `CCCCCCCCCC(=O)N[C@@H](Cc1ccccc1)C(=O)N[C@H]1CCCCNC(=O)/C=C/[C@H](Cc2ccc([N+](=O)[O-])cc2)NC1=O`, the IC50 with DU-145 and in the assay on LNCaP was greater than 1 µM throughout.

On to `CCCCCCCCCC(=O)N[C@@H](Cc1ccccc1)C(=O)N[C@H]1CCCCNC(=O)/C=C/[C@H](Cc2ccc(N)cc2)NC1=O`, for which the IC50 with DU-145 was 0.292 µM; in the assay on LNCaP it was 0.181 µM.

Take `CCCCCCCCCC(=O)N[C@@H](Cc1ccccc1)C(=O)N[C@H]1CCCCNC(=O)/C=C/[C@H](Cc2ccc(B(O)O)cc2)NC1=O`: the IC50 with DU-145 was found to be 0.723 µM; in the assay on LNCaP it was 0.882 µM.

With `CCCCCCCCCC(=O)N[C@@H](Cc1ccccc1)C(=O)N[C@H]1CCCCNC(=O)/C=C/[C@H](C(C)C)NC1=O`, the IC50 with DU-145 was 0.119 µM; in the assay on LNCaP it was 0.0912 µM.

In the case of `CCCCCCCCCC(=O)N[C@@H](Cc1ccccc1)C(=O)N[C@H]1CCCCNC(=O)/C=C/[C@H](Cc2ccc(CN)cc2)NC1=O`, the IC50 in the assay with DU-145 and in the assay with LNCaP was greater than 1 µM each time.

In the case of `CCCCCCCCCC(=O)N[C@@H](Cc1ccccc1)C(=O)N[C@H]1CCCCNC(=O)/C=C/[C@H](Cc2ccccc2)NC1=O`, the IC50 with DU-145 came to 0.0491 µM; with LNCaP it was 0.0435 µM.

In the case of `CCCCCCCCCC(=O)N[C@@H](Cc1ccccc1)C(=O)N[C@H]1CCCCNC(=O)/C=C/[C@H](CC(=O)O)NC1=O`, the IC50 with DU-145 and in the assay on LNCaP was greater than 1 µM in each case.

Turning to `CCCCCCCCCC(=O)N[C@@H](Cc1ccccc1)C(=O)N[C@H]1CCCCNC(=O)/C=C/[C@H](Cc2ccc(NC(=N)N)cc2)NC1=O`, the IC50 in the assay on DU-145 and in the assay with LNCaP was greater than 1 µM throughout.

`CCCCCCCCCC(=O)N[C@@H](Cc1ccccc1)C(=O)N[C@H]1CCCCNC(=O)/C=C/[C@H](Cc2ccc(NC)cc2)NC1=O`: the IC50 is 0.142 µM in the assay with DU-145 and 0.103 µM in the assay with LNCaP.

On to `CCCCCCCCCC(=O)N[C@@H](Cc1ccccc1)C(=O)N[C@H]1CCCCNC(=O)/C=C/[C@H](Cc2ccc(N(C)C)cc2)NC1=O`, for which the results for the IC50 with DU-145 and in the assay on LNCaP were 0.101 µM and 0.094 µM, respectively.

`CC(C)[C@H](NC(=O)N[C@H](C(=O)N[C@H]1/C=C/CCNC(=O)/C=C/[C@H](C(C)C)NC1=O)C(C)C)C(=O)O`: the IC50 with MM1.S was found to be 8.5 µM.

Regarding `CCCCCCCCCC(=O)N[C@@H](Cc1ccccc1)C(=O)N[C@H]1CCCCNC(=O)/C=C/[C@H](Cc2ccc(CC(=N)N)cc2)NC1=O`, the 50% inhibitory concentration (IC50) in the assay on DU-145 and in the assay with LNCaP was greater than 1 µM throughout.

Turning to `CCCCCCCCCC(=O)N[C@@H](Cc1ccccc1)C(=O)N[C@H]1CCCCNC(=O)/C=C/[C@H](Cc2ccc(OC)cc2)NC1=O`, the IC50 came to 0.487 µM in the assay on DU-145 and 0.116 µM in the assay with LNCaP.

`CCCCCCCCCC(=O)N[C@@H](Cc1ccccc1)C(=O)N[C@H]1CCCCNC(=O)/C=C/[C@H](CCC(=O)O)NC1=O`: the IC50 in the assay on DU-145 and in the assay on LNCaP was greater than 1 µM in each case. In assay [1], this molecule came in with a Ki greater than 10 µM.

Regarding `CC(C)[C@H](NC(=O)N[C@H](C(=O)N[C@H]1CCCCNC(=O)/C=C/[C@H](C(C)C)NC1=O)C(C)C)C(=O)O`, in assay [2], the inhibition entry is “inactive”.

As to `CCCCCCCCCC(=O)N[C@@H](Cc1ccccc1)C(=O)N[C@H]1CCCCNC(=O)/C=C/[C@H](Cc2ccc(C#N)cc2)NC1=O`, the IC50 is greater than 1 µM in the assay with DU-145 and 0.92 µM in the assay on LNCaP.

The term IC50 denotes the point on the concentration scale where inhibition reaches its midpoint. Usually Ki stands for the dissociation constant of the complex between target and ligand, obtained from inhibition or displacement.
